# Source: patent US12384797B2, “Thioeno[3,2-b] pyridin-7-amine compounds for treating familial dysautonomia” (PTC THERAPEUTICS, INC., priority 2019, dated 2025)
# Test system: Elongator complex protein 1 (ELP1, also referred to as IKBKAP)
# Test: IKBKAP-HTRF assay (IKBKAP protein in lysates of FD patient-derived fibroblasts)
# Type: cell-based, human
# Conditions: 48 hours incubation, 7-point concentration curve
# How it was run: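 Sandwich HTRF with two labelled anti-IKAP antibodies (overnight, 4 °C) measured IKBKAP in lysates of FD patient fibroblasts. Cells were exposed to compound for 48 h at 37 °C (7-point curve, 3.16-fold steps, triplicates). EC2x is the dose doubling IKBKAP versus DMSO control; MFI is sample ΔF divided by vehicle ΔF.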
SMILES,EC2x for IKBKAP protein expression (concentration producing two times the amount of IKBKAP protein vs DMSO vehicle control),MFI (maximum fold increase in IKBKAP protein abundance relative to the vehicle control)
"N[C@@H](CF)Cc1sc2c(NCc3nccs3)cc(Cl)nc2c1Br [Compound 70, 2-[(2R)-2-amino-3-fluoropropyl]-3-bromo-5-chloro-N-[(1,3-thiazol-2-yl)methyl]thieno[3,2-b]pyridin-7-amine]",***** (≤0.005 μM is indicated by five stars (*****)),***** (>4.9 is indicated by five stars (*****))
"N[C@@H](CO)Cc1sc2c(NCc3ccco3)cc(Cl)nc2c1Cl [Compound 39, (2R)-2-amino-3-(3,5-dichloro-7-{[(furan-2-yl)methyl]amino}thieno[3,2-b]pyridin-2-yl)propan-1-ol]",***** (≤0.005 μM is indicated by five stars (*****)),***** (>4.9 is indicated by five stars (*****))
"Cc1c(C[C@@H](N)CO)sc2c(NCc3ccco3)cc(Cl)nc12 [Compound 58, (2R)-2-amino-3-(5-chloro-7-{[(furan-2-yl)methyl]amino}-3-methylthieno[3,2-b]pyridin-2-yl)propan-1-ol]",***** (≤0.005 μM is indicated by five stars (*****)),***** (>4.9 is indicated by five stars (*****))
"CSC[C@H](N)Cc1sc2c(NCc3ccco3)cc(Cl)nc2c1C [Compound 104, 2-[(2R)-2-amino-3-(methylsulfanyl)propyl]-5-chloro-N-[(furan-2-yl)methyl]-3-methylthieno[3,2-b]pyridin-7-amine]",***** (≤0.005 μM is indicated by five stars (*****)),***** (>4.9 is indicated by five stars (*****))
"Cc1c(C[C@H](C)N)sc2c(NCc3ccco3)ccnc12 [Compound 34, 2-[(2S)-2-aminopropyl]-N-[(furan-2-yl)methyl]-3-methylthieno[3,2-b]pyridin-7-amine]",**** (between >0.005 μM and ≤0.02 μM is indicated by four stars (****)),***** (>4.9 is indicated by five stars (*****))
"Oc1csc2c(NCc3cccs3)cc(Cl)nc12 [Compound 138, 5-chloro-7-{[(thiophen-2-yl)methyl]amino}thieno[3,2-b]pyridin-3-ol]",*** (between >0.02 μM and ≤0.5 μM is indicated by three stars (***)),** (between >1.9 and ≤2.9 is indicated by two stars (**))
"C[C@H](N)Cc1sc2c(NCc3cccs3)cc(Cl)nc2c1Br [Compound 53, 2-[(2S)-2-aminopropyl]-3-bromo-5-chloro-N-[(thiophen-2-yl)methyl]thieno[3,2-b]pyridin-7-amine]",***** (≤0.005 μM is indicated by five stars (*****)),***** (>4.9 is indicated by five stars (*****))
"Cc1c(C[C@@H](N)C(=O)Nc2ccc(C#N)cc2)sc2c(NCc3ccco3)cc(Cl)nc12 [Compound 133, 3-(5-chloro-7-{[(furan-2-yl)methyl]amino}-3-methylthieno[3,2-b]pyridin-2-yl)-N-(4-cyanophenyl)-D-alaninamide]",***** (≤0.005 μM is indicated by five stars (*****)),***** (>4.9 is indicated by five stars (*****))
"Cc1c(C[C@H](C)N)sc2c(NCc3nccs3)cc(Cl)nc12 [Compound 57, 2-[(2S)-2-aminopropyl]-5-chloro-3-methyl-N-[(1,3-thiazol-2-yl)methyl]thieno[3,2-b]pyridin-7-amine]",***** (≤0.005 μM is indicated by five stars (*****)),***** (>4.9 is indicated by five stars (*****))
"Cc1c(C[C@@H](N)C(=O)Nc2cnccn2)sc2c(NCc3ccco3)cc(Cl)nc12 [Compound 135, 3-(5-chloro-7-{[(furan-2-yl)methyl]amino}-3-methylthieno[3,2-b]pyridin-2-yl)-N-pyrazin-2-yl-D-alaninamide]",***** (≤0.005 μM is indicated by five stars (*****)),**** (between >3.9 and ≤4.9 is indicated by four stars (****))
"Cc1c([C@@H](C)N)sc2c(NCc3ccco3)cc(Cl)nc12 [Compound 22, 2-[(1R)-1-aminoethyl]-5-chloro-N-[(furan-2-yl)methyl]-3-methylthieno[3,2-b]pyridin-7-amine]",* (An EC2x>1 μM is indicated by one star (*)),** (between >1.9 and ≤2.9 is indicated by two stars (**))
"Cc1c(C[C@@H](N)CCF)sc2c(NCc3nccs3)cc(Cl)nc12 [Compound 99, 2-[(2S)-2-amino-4-fluorobutyl]-5-chloro-3-methyl-N-[(1,3-thiazol-2-yl)methyl]thieno[3,2-b]pyridin-7-amine]",***** (≤0.005 μM is indicated by five stars (*****)),***** (>4.9 is indicated by five stars (*****))
"C[C@H](N)Cc1cc2nc(Cl)cc(NCc3ccco3)c2s1 [Compound 16, 2-[(2S)-2-aminopropyl]-5-chloro-N-[(furan-2-yl)methyl]thieno[3,2-b]pyridin-7-amine]",***** (≤0.005 μM is indicated by five stars (*****)),**** (between >3.9 and ≤4.9 is indicated by four stars (****))
"N[C@@H](CF)Cc1sc2c(NCc3cccs3)cc(Cl)nc2c1Cl [Compound 84, 2-[(2R)-2-amino-3-fluoropropyl]-3,5-dichloro-N-[(thiophen-2-yl)methyl]thieno[3,2-b]pyridin-7-amine]",***** (≤0.005 μM is indicated by five stars (*****)),***** (>4.9 is indicated by five stars (*****))
"N[C@@H](COC(F)(F)F)Cc1sc2c(NCc3nccs3)cc(Cl)nc2c1Br [Compound 64, 2-[(2R)-2-amino-3-(trifluoromethoxy)propyl]-3-bromo-5-chloro-N-[(1,3-thiazol-2-yl)methyl]thieno[3,2-b]pyridin-7-amine]",**** (between >0.005 μM and ≤0.02 μM is indicated by four stars (****)),***** (>4.9 is indicated by five stars (*****))
"CC[C@H](N)Cc1sc2c(NCc3cccs3)cc(Cl)nc2c1C [Compound 33, 2-[(2S)-2-aminobutyl]-5-chloro-3-methyl-N-[(thiophen-2-yl)methyl]thieno[3,2-b]pyridin-7-amine]",***** (≤0.005 μM is indicated by five stars (*****)),***** (>4.9 is indicated by five stars (*****))
"Cc1c(C[C@@H](N)[C@H](C)F)sc2c(NCc3cccs3)cc(Cl)nc12 [Compound 126, 2-[(2R,3S)-2-amino-3-fluorobutyl]-5-chloro-3-methyl-N-[(thiophen-2-yl)methyl]thieno[3,2-b]pyridin-7-amine]",***** (≤0.005 μM is indicated by five stars (*****)),***** (>4.9 is indicated by five stars (*****))
"Cc1c(C[C@@H](N)CF)sc2c(NCc3cccs3)cc(Cl)nc12 [Compound 91, 2-[(2R)-2-amino-3-fluoropropyl]-5-chloro-3-methyl-N-[(thiophen-2-yl)methyl]thieno[3,2-b]pyridin-7-amine]",***** (≤0.005 μM is indicated by five stars (*****)),***** (>4.9 is indicated by five stars (*****))
"Cc1c(C[C@H](C)N)sc2c(NCc3cccs3)cc(C#N)nc12 [Compound 54, 2-[(2S)-2-aminopropyl]-3-methyl-7-{[(thiophen-2-yl)methyl]amino}thieno[3,2-b]pyridine-5-carbonitrile]",***** (≤0.005 μM is indicated by five stars (*****)),***** (>4.9 is indicated by five stars (*****))
"C[C@H](N)Cc1sc2c(NCc3nccs3)cc(Cl)nc2c1Br [Compound 43, 2-[(2S)-2-aminopropyl]-3-bromo-5-chloro-N-[(1,3-thiazol-2-yl)methyl]thieno[3,2-b]pyridin-7-amine]",***** (≤0.005 μM is indicated by five stars (*****)),***** (>4.9 is indicated by five stars (*****))
"CC(C)C[C@H](N)Cc1sc2c(NCc3nccs3)cc(Cl)nc2c1Cl [Compound 79, 2-[(2S)-2-amino-4-methylpentyl]-3,5-dichloro-N-[(1,3-thiazol-2-yl)methyl]thieno[3,2-b]pyridin-7-amine]",***** (≤0.005 μM is indicated by five stars (*****)),***** (>4.9 is indicated by five stars (*****))
"Cc1c(CCN)sc2c(NCc3ccco3)cc(Cl)nc12 [Compound 152, 2-(2-aminoethyl)-5-chloro-N-[(furan-2-yl)methyl]-3-methylthieno[3,2-b]pyridin-7-amine]",*** (between >0.02 μM and ≤0.5 μM is indicated by three stars (***)),** (between >1.9 and ≤2.9 is indicated by two stars (**))
